Several values for one entry are separate records, joined by “and”; a condition that tells them apart may be missing. Equal entries are not always repeated.
Molecular target: T1, Histidine--tRNA ligase (Leishmania infantum, UniProt A4I591)
T1 sequence (A4I591 whole entry): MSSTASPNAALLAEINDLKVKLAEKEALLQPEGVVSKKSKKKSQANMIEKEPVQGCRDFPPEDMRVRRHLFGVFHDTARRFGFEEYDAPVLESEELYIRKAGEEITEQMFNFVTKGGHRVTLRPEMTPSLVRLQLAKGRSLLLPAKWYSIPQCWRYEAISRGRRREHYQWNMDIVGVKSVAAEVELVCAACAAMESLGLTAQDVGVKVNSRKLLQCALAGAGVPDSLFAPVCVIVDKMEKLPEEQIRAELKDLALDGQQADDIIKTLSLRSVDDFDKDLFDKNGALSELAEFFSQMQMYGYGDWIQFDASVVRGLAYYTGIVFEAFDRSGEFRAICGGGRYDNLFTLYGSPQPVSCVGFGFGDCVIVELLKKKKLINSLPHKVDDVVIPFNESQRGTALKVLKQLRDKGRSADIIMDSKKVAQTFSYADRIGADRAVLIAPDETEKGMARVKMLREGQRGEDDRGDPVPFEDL
Test: Leishmania infantum Histidine tRNA synthetase (LdHisRS)
Format: functional

SMILES | IC50
Cc1noc(C(C)Nc2ccc(N3CCOCC3)cc2C)n1 (stereo unspecified) | > 100 µM
CCC(=O)Nc1cc(Br)cn(C)c1=O | 7.66 µM and 7.91 µM
Cc1cc(C(=O)Nc2cccn(Cc3ccc(F)cc3)c2=O)on1 | 12.9 µM and 11.3 µM
NC(=O)C1=NC2=NS(=O)(=O)c3ccccc3N2N1Cc1ccc(Br)cc1 | 41 µM and 69.9 µM
Cc1noc(C)c1CNc1ccc2nc(C3CC3)sc2c1 | > 100 µM
Cc1cc(CNc2ccc3nc(C)sc3c2)no1 | > 100 µM
COc1ccccc1C1(CNCc2ccc(C#N)cc2)CCOCC1 | 50.4 µM and 50.9 µM
CC(C)c1ccc(C(=O)O)cc1S(=O)(=O)Nc1ccc(=O)n(C)c1 | 12.5 µM and 14.9 µM
Cc1ccsc1C(=O)Nc1cc(Br)c(=O)n(C)c1 | 30.3 µM and 25.3 µM
Cn1cnnc1C1CCCN(C(=O)c2cc(C3CC3)on2)C1 (stereo unspecified) | > 100 µM
O=C1CCC(C(=O)Nc2ccc(=O)n(Cc3ccc(Cl)c(Cl)c3)c2)N1 (stereo unspecified) | 10.1 µM and 9.92 µM
Cn1cc(NC(=O)Nc2cccc3cccnc23)ccc1=O | 2.58 µM and 4.22 µM
COc1ccc(C(NCc2cccc(O)c2)C2CC2)cc1 (stereo unspecified) | 26.9 µM and 20.1 µM
Cc1cc(C)cc(OCCC(=O)NC2CC(=O)N(C)C2)c1 (stereo unspecified) | > 100 µM
CC(=O)N1CCN(C(=O)CNc2ccc3ncsc3c2)CC1 | 6.78 µM and 9.49 µM
CN(C(=O)CN1CCc2nn(C)c(=O)cc2C1)c1nccs1 | 95.3 µM and > 100 µM
CS(=O)(=O)CCOCCNc1cncc(Br)c1 | > 100 µM
Cc1noc(C)c1CNc1c(N2CCCC2)cccc1N1CCCC1 | > 100 µM
Cn1cccc(NC(=O)N2CCC(CSc3ccccc3)C2)c1=O (stereo unspecified) | 15.1 µM and 14.9 µM
Cn1cc(NC(=O)Nc2ccccn2)cc(Cl)c1=O | 13.6 µM and 14.1 µM
CCCn1nc2c(cc1=O)CN(Cc1cc(C)on1)CC2 | 80.7 µM and 80.3 µM
CCCn1nc2c(cc1=O)CN(Cc1nc(CCOC)no1)CC2 | 57.7 µM and 67.2 µM
CN(C)CCn1c(=O)oc2ccc(NC(=O)C3CCCO3)cc21 (stereo unspecified) | > 100 µM
C[C@H](NS(C)(=O)=O)C(=O)NCc1cc(-c2ccco2)n[nH]1 | > 100 µM

SMILES | IC50
CC(C)[C@H](NS(C)(=O)=O)C(=O)NCc1cc(-c2ccco2)n[nH]1 | 87.9 µM and 82 µM
CN1C(=O)[C@H]2CC[C@@H]1CN(C(=O)Nc1cccc3ccccc13)C2 | 55.3 µM and 43.3 µM
O=C(CCc1n[nH]c2c1CCCC2)N1C[C@@H]2CC[C@H](C1)N(CC1CC1)C2 | 44.9 µM and 35.8 µM
FC(F)(F)c1ccc(-c2cc(NC3CCNCC3)nc3[nH]ccc23)nc1 | 29.3 µM and 30.2 µM
CC(C)c1nnc(N2C[C@@H]3CC[C@H](C2)N(Cc2ccccc2)C3)s1 | 35.5 µM and 34.5 µM
CC(=O)Nc1ccc2nc(-c3nccn3C[C@@H]3CCCO3)ccc2c1 | > 100 µM and 85.4 µM
Cn1ccnc1-c1cn(CCc2nnc(N)s2)nn1 | > 100 µM
COc1cccc(N2CCN(Cc3cccc(CCN)c3)CC2=O)c1 | 23.3 µM and 28.2 µM
CN1CCN(Cc2nnc(C3CCN(C(CO)CO)CC3)n2C)CC1 | 16 µM and 15.8 µM
O=C1CN(C(=O)c2cc(-c3ccco3)nc3c(Cl)cccc23)CCN1 | 18.6 µM and 19.5 µM
COc1ccc(CCN)cc1-c1ccc(C(N)=O)cc1 | 48.8 µM and 28 µM
Clc1cc(NCc2ccncc2)nc2[nH]ccc12 | 18.7 µM and 17.4 µM
CC(C)c1cc(N2CCC(C(C)N3CCCC3)CC2)n2nccc2n1 (stereo unspecified) | 34.3 µM and 31.4 µM
CN(C)[C@@H]1C[C@@H](CO)N(C(=O)Nc2ccc(SC(F)(F)F)cc2)C1 | > 100 µM
Cn1ccnc1-c1cn(CCCc2csc(N)n2)nn1 | > 100 µM
O=C(c1cc(-c2ccco2)nc2c(Cl)cccc12)N1C[C@H]2CNC[C@H]2C1 | 48.1 µM and 51.8 µM
CCc1cc(N2CCC(F)(F)CC2)n2nc(C)c(C)c2n1 | > 100 µM
COc1cccn(CC(=O)N(C)CCCOc2c(C)cccc2C)c1=O | > 100 µM
Cc1cccc2c1nc(COCC(=O)O)n2-c1cnc(N)cn1 | > 100 µM
c1cncc(NCCNC2CCSC2)c1 (stereo unspecified) | 31.9 µM and 23 µM
NCCc1cccc(CN2CCN(c3ccccc3)C(=O)C2)c1 | 26.8 µM and 20.5 µM
CN1CCN(c2cccc(NC(=O)NCc3csc(N(C)C)n3)c2)C1=O | 38.9 µM and 48.5 µM
CC(Nc1nc(-c2ccncc2)nc2c1CCNC2)c1ccccc1 (stereo unspecified) | 43.4 µM and 46.8 µM
COc1ccc(C(=O)N2CCN(c3cc(CCN)nc(C)n3)CC2)cc1 | 49.3 µM and 51.2 µM

SMILES | IC50
O=C(CCN1CCCC1)N1CC[C@@H](c2ccc3ccccc3c2)[C@H](O)C1 | 63.5 µM and 54.7 µM
c1cncc(NCCNC2CSCCSC2)c1 | 28.7 µM and 19.6 µM
CN(Cc1ccccc1CN1CCCC1)c1ncnc2[nH]ccc12 | 44.8 µM and 48.7 µM
Cc1c(C(=O)N2CCC(O)(CN(C)C)C2)c2cc(O)ccc2n1C (stereo unspecified) | > 100 µM
COCc1ncc(-c2nccn2CCS(C)(=O)=O)cn1 | > 100 µM
CCOc1ccc2nc(CN3CCC(CN)C3)ccc2c1 (stereo unspecified) | 33.2 µM and 46.9 µM
O=C(c1cc(=O)n(-c2ccccc2)[nH]1)N1CCCC(c2ccn[nH]2)C1 (stereo unspecified) | 49.3 µM and 44.5 µM
CCC1=NOC(CNCc2cnc(-c3ccccc3C)s2)C1 (stereo unspecified) | > 100 µM
COc1cccc2c1OCCCN(c1nc(N)nc3c1CCNC3)C2 | 28.2 µM and 32.1 µM
CCc1ocnc1C(=O)N1CCN(c2ccc3ccccc3c2)CC1 | 57.4 µM and 54 µM
COCCCN(C)C(=O)Cn1cccc(OC)c1=O | 66 µM and 57.5 µM
O=C(c1cncc(N2CCC3(CCCNC3)C2)n1)N1CCCC1 (stereo unspecified) | > 100 µM
CC(C)N(C)S(=O)(=O)c1ccc2c(c1)CCN(C(=O)c1ccccn1)C2 | 37 µM and 42.8 µM
O=C1CC2(CCN(Cc3ccc4cccc(O)c4n3)CC2)CN1 | 46.2 µM and 45.6 µM
O=C(O)C1c2nc[nH]c2CCN1CC(c1ccccc1)c1ccccc1 (stereo unspecified) | 6.21 µM and 7.09 µM
COc1cccn(Cc2nnc(-c3cccc(F)c3)o2)c1=O | 15.9 µM and 12.8 µM
CC(c1ccco1)n1cc(-c2cc(CN3CCCC3)cs2)nn1 (stereo unspecified) | 55.6 µM and 80.9 µM
Cc1nonc1CN(C)c1nc(-c2cccnc2)nc2c1CCNC2 | 15.1 µM and 18.7 µM
CCCN1CCC(Cc2nn3c(C(C)C)nnc3s2)CC1 | > 100 µM
COc1cccc(-c2n[nH]c3c2CN(C(=O)c2cccc(=O)[nH]2)CC3)c1 | 12.9 µM
COc1nccnc1-c1cc(NC2CCNCC2)nc2[nH]ccc12 | 34.1 µM and 29.8 µM
CN(C)c1ncc(-c2c(-c3ccccc3)ncn2C(CO)C(=O)O)cn1 (stereo unspecified) | > 100 µM
CC(NC(=O)c1coc(COc2cccc(F)c2)n1)c1nnc(N)s1 (stereo unspecified) | 98.7 µM and 60.1 µM
CC(=O)Cc1c(C)nn(-c2cncc(N)c2)c1C | 33.4 µM and 30.1 µM

SMILES | IC50
CNC(=O)c1cn2cc(-c3ccccc3Cl)n(CC=C(C)C)c(=O)c2n1 | 54.6 µM and 36 µM
COc1ccc(Oc2nccc3occc23)cc1CN1CCCC1 | 66.1 µM and 62.2 µM
Cn1ncc(-c2cc(-c3cccc(O)c3)nc(N)c2C#N)c1C1CC1 | 61.2 µM and 76.8 µM
CCOc1ccc(C(=O)N(CCOC)Cc2c(C)nn(CC)c2C)o1 | > 100 µM
Cc1ccc(C)c(OC(C)C(=O)NCCNc2cccnc2)c1 (stereo unspecified) | 23.4 µM and 28.9 µM
COc1cccc(CN2CCN(CC(C)C)C(=O)C2C)c1O (stereo unspecified) | 6.15 µM and 5.67 µM
COc1cccn(CC(=O)N(C)Cc2ccoc2)c1=O | > 100 µM
COc1cccn(CC(=O)N(C)CCOc2cc(C)cc(C)c2)c1=O | 3.92 µM and 3.35 µM
CC1=C(C#N)C(=O)NC(=O)/C1=C\c1c(C)nn(-c2ccc(C)cc2)c1O | 58.7 µM and 48 µM
CC1=C(C#N)C(=O)NC(=O)/C1=C\c1c(C)nn(-c2ccc(Cl)cc2)c1O | > 100 µM
Cc1nccn1-c1cccc(C2CCCN(C3CCCCC3)C2)n1 (stereo unspecified) | 36.7 µM and 33.6 µM
NC(=O)C1CCCN(Cc2c(-c3ccco3)[nH]c3ncccc23)C1 (stereo unspecified) | 67.8 µM and 46 µM
OC1CCCN(Cc2c(-c3ccco3)[nH]c3ncccc23)C1 (stereo unspecified) | 58.7 µM and 38.5 µM
Cc1noc(C)c1C(=O)N1CCC(Nc2cccnn2)CC1 | > 100 µM
Cc1ccc(-c2noc(CN3CCc4nn(C)c(=O)cc4C3)n2)cc1 | 29.8 µM and 30.4 µM
Cn1nc2c(cc1=O)CN(Cc1nc(-c3ccco3)no1)CC2 | 11.8 µM and 14 µM
CC(=O)NCC1CCN(c2cc(C)nc(-c3ccncc3)n2)CC1 | 64 µM and > 100 µM
CC(=O)N(Cc1noc(C)n1)C1CCN(Cc2cccc(C#N)c2)C1 (stereo unspecified) | > 100 µM
CC(O)CNC(=O)NCc1ccc(N2CCNC(=O)C2)cc1 (stereo unspecified) | > 100 µM and 58.3 µM
CC(C(=O)NCc1ccc(N2CCNC(=O)C2)cc1)n1cncn1 (stereo unspecified) | 60.1 µM and 77.1 µM
c1ccc(Cn2cc(CNCC3CCCN3c3cccnn3)cn2)cc1 (stereo unspecified) | > 100 µM
O=C(CN1CCc2cncnc2C1)NCCOc1ccccc1 | 74.1 µM and 60.5 µM
Cc1nccc(-c2cccc(NCC(=O)N3CCc4sccc4C3)c2)n1 | 73.8 µM and 68.4 µM
c1ccc(-n2ncc(CNCC3CCCN3c3cccnn3)n2)cc1 (stereo unspecified) | 22.3 µM and 27.2 µM

SMILES | IC50
Cc1ncc2c(n1)CN(Cc1nnc(Cc3ccccc3)o1)CC2 | 48.1 µM and 49.9 µM
Cc1ncc2c(n1)CN(Cc1nnc(-c3occc3C)o1)CC2 | 64.7 µM and 82.6 µM
Cc1nnc(NCc2ccccc2Cl)c(C#N)c1C | 24.6 µM and 31.1 µM
CC(C)c1ncc2c(n1)CN(Cc1nc(Cc3ccccc3)no1)CC2 | > 100 µM
COc1ccccc1N1CCC(CNCc2cccc(OC)c2OC)C1 (stereo unspecified) | > 100 µM
CC(C(=O)Nc1ccc(N2CCCC2)nc1)n1cncn1 (stereo unspecified) | > 100 µM
c1ccc(-c2cnc(CNC3CCCN(c4cccnn4)C3)o2)cc1 (stereo unspecified) | 43.5 µM and 30.5 µM
COc1ccc(-c2nc(CN3CCc4c(ncn4C)C3)cs2)cc1 | 69.8 µM and 87.5 µM
COc1ccc(-c2noc(CN3CCc4cncnc4C3)n2)cc1 | > 100 µM
CCOc1nnc(CNC2CCCN(c3ccc(C)nn3)C2)s1 (stereo unspecified) | > 100 µM and 94.7 µM
CCCc1nc(CN2CCOC(CNc3cccnn3)C2)cs1 (stereo unspecified) | 45.1 µM and 33.5 µM
CCC1CN(CCC(=O)N(C)C)CCN1CCOC (stereo unspecified) | > 100 µM
CC(O)CN1CCN(C(=O)c2ccc(Cn3cccn3)cc2)CC1 (stereo unspecified) | > 100 µM
Cc1csc(N2CCN(C(=O)CCC(=O)c3ccc(C)s3)CC2)n1 | > 100 µM
COCCOc1ccccc1C(=O)N1CCCCC1c1nccs1 (stereo unspecified) | 51.1 µM and 64.2 µM
CCCn1nc2c(cc1=O)CN(CCCN1CCCC1=O)CC2 | 48.6 µM and 55.3 µM
Cc1nc(CN(C)C2CCN(Cc3ccc4ccccc4n3)C2)no1 (stereo unspecified) | 59.9 µM and 39.8 µM
Cc1cc(N2CCC(Cc3ccccc3)CC2)nc(-c2ccncc2)n1 | 25 µM and 18.4 µM
Cc1nc(CN2CCCC2c2ccsc2)nc2ccccc12 (stereo unspecified) | 56 µM and 44.1 µM
CNCCc1nc2cc(F)ccc2[nH]1 | 47.9 µM and 34.8 µM

— ChEMBL document CHEMBL3988442, “University of Dundee, Small-Polar-MMV Screening Library” (2021)
